Reference: ChEMBL document CHEMBL5226290, “Rational design of SphK inhibitors using crystal structures aided by computer” (Eur J Med Chem, 2021)

Legend:
Sphingosine kinase 2 [1] = molecular target: T1, Sphingosine kinase 2 (Homo sapiens, UniProt Q9NRA0); assay: Inhibition of SphK2 (unknown origin) assessed as inhibition constant
T1 sequence (Q9NRA0 whole entry): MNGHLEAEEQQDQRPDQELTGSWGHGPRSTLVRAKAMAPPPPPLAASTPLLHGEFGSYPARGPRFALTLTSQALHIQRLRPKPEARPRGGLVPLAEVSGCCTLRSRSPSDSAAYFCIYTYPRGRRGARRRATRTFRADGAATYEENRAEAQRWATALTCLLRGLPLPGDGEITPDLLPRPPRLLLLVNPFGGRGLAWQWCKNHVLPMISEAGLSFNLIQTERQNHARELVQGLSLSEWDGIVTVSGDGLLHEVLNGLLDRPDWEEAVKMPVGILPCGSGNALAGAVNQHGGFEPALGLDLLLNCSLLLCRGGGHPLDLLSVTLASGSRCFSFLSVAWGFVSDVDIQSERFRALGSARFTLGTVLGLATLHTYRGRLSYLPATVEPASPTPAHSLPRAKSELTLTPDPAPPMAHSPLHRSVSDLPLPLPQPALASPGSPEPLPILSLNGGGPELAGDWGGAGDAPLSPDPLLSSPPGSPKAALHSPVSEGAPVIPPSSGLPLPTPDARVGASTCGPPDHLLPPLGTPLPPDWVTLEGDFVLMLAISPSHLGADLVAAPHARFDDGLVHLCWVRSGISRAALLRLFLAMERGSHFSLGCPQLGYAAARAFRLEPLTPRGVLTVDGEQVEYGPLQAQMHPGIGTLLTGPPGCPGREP

Sphingosine kinase 1 [2] = molecular target: T2, Sphingosine kinase 1 (Homo sapiens, UniProt Q9NYA1); assay: Inhibition of SphK1 (unknown origin) assessed as inhibition constant
T2 sequence (Q9NYA1 whole entry, the tested form may be a part): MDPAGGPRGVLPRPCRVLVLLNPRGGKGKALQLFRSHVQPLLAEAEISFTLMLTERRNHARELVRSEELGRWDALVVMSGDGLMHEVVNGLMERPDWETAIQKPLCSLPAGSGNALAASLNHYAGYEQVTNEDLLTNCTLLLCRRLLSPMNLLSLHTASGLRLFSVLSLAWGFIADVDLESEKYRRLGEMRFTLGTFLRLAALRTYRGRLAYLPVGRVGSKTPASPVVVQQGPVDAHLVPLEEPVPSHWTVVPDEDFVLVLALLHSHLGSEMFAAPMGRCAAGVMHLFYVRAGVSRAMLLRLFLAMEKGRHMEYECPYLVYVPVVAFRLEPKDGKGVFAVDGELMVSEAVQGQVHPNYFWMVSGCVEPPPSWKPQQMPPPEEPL

Sphingosine kinase 2 [3] = molecular target: T1, Sphingosine kinase 2; assay: Inhibition of recombinant GST-tagged SphK2 (unknown origin) (1 to 618 residues) expressed in baculovirus using sphingosine as substrate incubated for 1 hr in presence of ATP by electrophoretic mobility shift assay
Sphingosine kinase 1 [4] = molecular target: T2, Sphingosine kinase 1; assay: Inhibition of recombinant GST-tagged SphK1 (unknown origin) (1 to 384 residues) expressed in baculovirus using sphingosine as substrate incubated for 1 hr in presence of ATP by electrophoretic mobility shift assay
Sphingosine kinase 1 [5] = molecular target: T2, Sphingosine kinase 1; assay: Inhibition of SphK1 (unknown origin)
Sphingosine kinase 2 [6] = molecular target: T1, Sphingosine kinase 2; assay: Inhibition of SphK2 (unknown origin)
Sphingosine kinase 1 [7] = molecular target: T2, Sphingosine kinase 1; assay: Inhibition of SphK1 (unknown origin) using ATP as substrate preincubated for 40 mins followed by substrate addition and measured after 5 mins by spectrophotometric analysis
Sphingosine kinase 1 [8] = molecular target: T2, Sphingosine kinase 1; assay: Inhibition of recombinant SphK1 (unknown origin) using NBD-sphingosine as substrate in presence of ATP by fluorescence plate reader analysis
Sphingosine kinase 2 [9] = molecular target: T1, Sphingosine kinase 2; assay: Inhibition of recombinant SphK2 (unknown origin) using NBD-sphingosine as substrate in presence of ATP by fluorescence plate reader analysis
Sphingosine kinase 2 [10] = molecular target: T1, Sphingosine kinase 2; assay: Inhibition of SphK2 (unknown origin) using ATP as substrate preincubated for 40 mins followed by substrate addition and measured after 5 mins by spectrophotometric analysis
Sphingosine kinase 2 [11] = molecular target: T3, Sphingosine kinase 2 (Mus musculus, UniProt Q9JIA7); assay: Inhibition of recombinant mouse SphK2 expressed in baculovirus infected Sf9 cells using D-erythro-sphingosine and [gamma-32P]ATP as substrate incubated for 30 mins by liquid scintillation counting analysis
T3 sequence (Q9JIA7 whole entry): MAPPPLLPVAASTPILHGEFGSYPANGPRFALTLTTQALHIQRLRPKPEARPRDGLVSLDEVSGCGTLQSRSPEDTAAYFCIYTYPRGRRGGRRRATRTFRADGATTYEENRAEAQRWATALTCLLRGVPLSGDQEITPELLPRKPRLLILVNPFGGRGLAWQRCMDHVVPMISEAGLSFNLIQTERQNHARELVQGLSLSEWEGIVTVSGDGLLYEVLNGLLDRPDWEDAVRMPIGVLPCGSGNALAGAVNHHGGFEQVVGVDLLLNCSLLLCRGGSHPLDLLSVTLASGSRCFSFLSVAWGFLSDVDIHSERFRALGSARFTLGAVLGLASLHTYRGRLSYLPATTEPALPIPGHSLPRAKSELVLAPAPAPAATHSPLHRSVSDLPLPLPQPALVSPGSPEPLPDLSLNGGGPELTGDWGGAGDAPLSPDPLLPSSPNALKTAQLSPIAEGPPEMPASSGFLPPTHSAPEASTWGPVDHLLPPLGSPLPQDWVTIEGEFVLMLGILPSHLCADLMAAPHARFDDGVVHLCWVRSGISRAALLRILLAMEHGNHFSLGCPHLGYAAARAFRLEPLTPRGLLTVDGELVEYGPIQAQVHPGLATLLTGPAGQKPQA

Sphingosine kinase 1 [12] = molecular target: Sphingosine kinase 1 (Mus musculus, UniProt Q8CI15); assay: Inhibition of recombinant mouse SphK1 expressed in baculovirus infected Sf9 cells using D-erythro-sphingosine and [gamma-32P]ATP as substrate incubated for 30 mins by liquid scintillation counting analysis
Sequence of Sphingosine kinase 1 (Mus musculus, UniProt Q8CI15) (Q8CI15 whole entry): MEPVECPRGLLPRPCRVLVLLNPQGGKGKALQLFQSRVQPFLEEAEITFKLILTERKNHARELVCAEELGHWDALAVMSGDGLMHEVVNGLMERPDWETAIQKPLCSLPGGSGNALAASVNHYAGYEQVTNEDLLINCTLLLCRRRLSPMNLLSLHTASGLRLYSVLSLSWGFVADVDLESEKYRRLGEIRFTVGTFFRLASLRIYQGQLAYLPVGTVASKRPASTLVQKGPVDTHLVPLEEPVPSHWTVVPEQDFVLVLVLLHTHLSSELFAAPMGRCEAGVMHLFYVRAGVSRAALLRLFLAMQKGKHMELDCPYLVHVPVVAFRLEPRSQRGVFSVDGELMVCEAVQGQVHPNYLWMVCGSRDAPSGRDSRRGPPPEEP

Oc1ccc(Nc2nc(-c3ccc(Cl)cc3)cs2)cc1
Ki (Sphingosine kinase 2 [1]): 8 µM

CC(=O)N(C1=C(Cl)C(=O)c2ccccc2C1=O)C1CCCCC1
Ki (Sphingosine kinase 1 [2]): 0.3 µM

CCCCCCCCCCCCCC[C@@H]1OC[C@@H](N)[C@@H]1O
IC50 (Sphingosine kinase 2 [3]): 1.6 µM | IC50 (Sphingosine kinase 1 [4]): 5.3 µM

CCCCCCCCCCCCCC[C@@H]1OC[C@H](N)[C@@H]1O
IC50 (Sphingosine kinase 1 [5]): 4.6 µM | IC50 (Sphingosine kinase 2 [6]): 6.6 µM

CCCCCCCCCCCCC/C=C/[C@H](O)[C@@H](CO)N(C)C
Ki (Sphingosine kinase 2 [1]): 12 µM

N[C@H]1CN[C@H](CCCCCCCCCCCOC2CCOCC2)[C@H]1O
IC50 (Sphingosine kinase 1 [7]): 0.8 µM

COc1ccc2[nH]c(=O)c(/C=C/C(=O)c3ccc(Nc4nccc(-c5ccc6ccccc6c5)n4)cc3)cc2c1
IC50 (Sphingosine kinase 1 [8]): 3.1 µM

CCCCCCCCCCCCC/C=C/C(O)C(CO)NC(=N)N (centres undefined)
Ki (Sphingosine kinase 2 [1]): 0.3 µM | Ki (Sphingosine kinase 1 [2]): 0.04 µM

Brc1cc2c(c3ccccc13)N1OC(C2)CC1CCc1ccccc1 (centres undefined)
IC50 (Sphingosine kinase 2 [9]): 71 µM | IC50 (Sphingosine kinase 1 [8]): > 650 µM

CCCOCCCCCCCCCC[C@@H]1OC[C@@H](N)[C@@H]1O
IC50 (Sphingosine kinase 2 [10]): 3.2 µM | IC50 (Sphingosine kinase 1 [7]): > 30 µM

CCCCCCCCOc1ccc2cc(-c3noc(C4[C@@H](O)CCN4C(=N)N)n3)ccc2c1 (single isomer, unassigned)
Ki (Sphingosine kinase 2 [11]): 1 µM | Ki (Sphingosine kinase 1 [12]): 20 µM

CCCCCCCCCCCCCC[C@H]1OC[C@H](N)[C@@H]1O [2-EPI JASPINE B]
IC50 (Sphingosine kinase 2 [10]): 24.8 µM | IC50 (Sphingosine kinase 1 [7]): 4.3 µM
